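Exposure lasted 48 hours, with cells grown in 96-well plates and compounds tested at five concentrations. TGI marks complete inhibition of growth.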
How the values were obtained:
Assay in all cases: inhibition of tumour cell growth, NCI panel, 48 h
K-562 leukemia = system: K-562 leukemia
RXF 393 renal = system: RXF 393 renal
786-0 renal = system: 786-0 renal
SF-539 CNS = system: SF-539 CNS
MDA-N = system: MDA-N
UO-31 renal = system: UO-31 renal
ACHN renal = system: ACHN renal
A549 NSCLC = system: A549 NSCLC
SK-MEL-28 melanoma = system: SK-MEL-28 melanoma
HCC-2998 colon = system: HCC-2998 colon
SNB-75 CNS = system: SNB-75 CNS
HCT-116 colon = system: HCT-116 colon
MOLT-4 leukemia = system: MOLT-4 leukemia
NCI/ADR-RES ovarian = system: NCI/ADR-RES ovarian
CCRF-CEM leukemia = system: CCRF-CEM leukemia
UACC-257 melanoma = system: UACC-257 melanoma
DU-145 prostate = system: DU-145 prostate
HCT-15 colon = system: HCT-15 colon
RPMI-8226 leukemia = system: RPMI-8226 leukemia
OVCAR-8 ovarian = system: OVCAR-8 ovarian
HS 578T breast = system: HS 578T breast
SK-MEL-2 melanoma = system: SK-MEL-2 melanoma
KM12 colon = system: KM12 colon
M14 melanoma = system: M14 melanoma
MCF7 breast = system: MCF7 breast
HOP-92 NSCLC = system: HOP-92 NSCLC
OVCAR-4 ovarian = system: OVCAR-4 ovarian
SF-295 CNS = system: SF-295 CNS
NCI-H522 lung = system: NCI-H522 lung
BT-549 breast = system: BT-549 breast
COLO 205 colon = system: COLO 205 colon
MDA-MB-435 = system: MDA-MB-435
SW-620 colon = system: SW-620 colon
OVCAR-5 ovarian = system: OVCAR-5 ovarian
NCI-H23 lung = system: NCI-H23 lung
SK-OV-3 ovarian = system: SK-OV-3 ovarian
U251 CNS = system: U251 CNS
NCI-H460 lung = system: NCI-H460 lung
SK-MEL-5 melanoma = system: SK-MEL-5 melanoma
SNB-19 CNS = system: SNB-19 CNS
HL-60(TB) leukemia = system: HL-60(TB) leukemia
TK-10 renal = system: TK-10 renal
NCI-H226 lung = system: NCI-H226 lung
PC-3 prostate = system: PC-3 prostate
OVCAR-3 ovarian = system: OVCAR-3 ovarian
MDA-MB-231 breast = system: MDA-MB-231 breast
HOP-62 NSCLC = system: HOP-62 NSCLC
IGROV1 ovarian = system: IGROV1 ovarian
SF-268 CNS = system: SF-268 CNS
CAKI-1 renal = system: CAKI-1 renal
A498 renal = system: A498 renal
SR leukemia = system: SR leukemia
SN12C renal = system: SN12C renal
T-47D breast = system: T-47D breast
LOX IMVI melanoma = system: LOX IMVI melanoma
HT29 colon = system: HT29 colon
EKVX NSCLC = system: EKVX NSCLC
UACC-62 melanoma = system: UACC-62 melanoma
MALME-3M melanoma = system: MALME-3M melanoma

## COC1=CC(=O)C2=C(C1=O)[C@H]1CC[C@]3(C)[C@@H](O)CC[C@H]3[C@@H]1CC2
K-562 leukemia
  TGI: 83.8 µM
RXF 393 renal
  TGI: 46.5 µM
786-0 renal
  TGI: 37.8 µM
SF-539 CNS
  TGI: 30.6 µM
MDA-N
  TGI: 32.8 µM
UO-31 renal
  TGI: 43.5 µM
ACHN renal
  TGI: 31.9 µM
A549 NSCLC
  TGI: 34.7 µM
SK-MEL-28 melanoma
  TGI: 38.3 µM
HCC-2998 colon
  TGI: 42.8 µM
SNB-75 CNS
  TGI: 36.5 µM
HCT-116 colon
  TGI: 30.7 µM
MOLT-4 leukemia
  TGI: 20.8 µM
NCI/ADR-RES ovarian
  TGI: 84 µM
CCRF-CEM leukemia
  TGI: 86.2 µM
UACC-257 melanoma
  TGI: 30 µM
DU-145 prostate
  TGI: 31 µM
HCT-15 colon
  TGI: 31.9 µM
RPMI-8226 leukemia
  TGI: 44.4 µM
OVCAR-8 ovarian
  TGI: 31.6 µM
HS 578T breast
  TGI: 42.7 µM
SK-MEL-2 melanoma
  TGI: 26.8 µM
KM12 colon
  TGI: 32.3 µM
M14 melanoma
  TGI: 31.3 µM
MCF7 breast
  TGI: 30.7 µM
HOP-92 NSCLC
  TGI: 37.5 µM
OVCAR-4 ovarian
  TGI: 30.9 µM
SF-295 CNS
  TGI: 30.3 µM
NCI-H522 lung
  TGI: 31.8 µM
BT-549 breast
  TGI: 31.8 µM
COLO 205 colon
  TGI: 22.5 µM
MDA-MB-435
  TGI: 33.3 µM
SW-620 colon
  TGI: > 100 µM
OVCAR-5 ovarian
  TGI: 33.6 µM
NCI-H23 lung
  TGI: 56.8 µM
SK-OV-3 ovarian
  TGI: > 100 µM
U251 CNS
  TGI: 31.3 µM
NCI-H460 lung
  TGI: 35.8 µM
SK-MEL-5 melanoma
  TGI: 28.8 µM
SNB-19 CNS
  TGI: 73.2 µM
HL-60(TB) leukemia
  TGI: 46.5 µM
TK-10 renal
  TGI: 63.8 µM
NCI-H226 lung
  TGI: 31.5 µM
PC-3 prostate
  TGI: 30 µM
OVCAR-3 ovarian
  TGI: 32.3 µM
MDA-MB-231 breast
  TGI: 5.84 µM
HOP-62 NSCLC
  TGI: 29.7 µM
IGROV1 ovarian
  TGI: 44.7 µM
SF-268 CNS
  TGI: 31 µM
CAKI-1 renal
  TGI: 57.4 µM
A498 renal
  TGI: > 100 µM
SR leukemia
  TGI: 55.4 µM
SN12C renal
  TGI: 30.6 µM
T-47D breast
  TGI: 38.4 µM
LOX IMVI melanoma
  TGI: 35.8 µM
HT29 colon
  TGI: 19 µM
EKVX NSCLC
  TGI: 30.5 µM
UACC-62 melanoma
  TGI: 31.2 µM

## CC(=O)Nc1ccc(C(O)/C(=N/N)c2nc3ccc(Cl)cc3[nH]c2=O)cc1 (configuration not stated)
RXF 393 renal
  TGI: > 100 µM
786-0 renal
  TGI: > 100 µM
SF-539 CNS
  TGI: > 100 µM
MDA-N
  TGI: > 100 µM
UO-31 renal
  TGI: > 100 µM
ACHN renal
  TGI: > 100 µM
A549 NSCLC
  TGI: > 100 µM
SK-MEL-28 melanoma
  TGI: > 100 µM
HCC-2998 colon
  TGI: > 100 µM
SNB-75 CNS
  TGI: > 100 µM
HCT-116 colon
  TGI: > 100 µM
MOLT-4 leukemia
  TGI: > 100 µM
NCI/ADR-RES ovarian
  TGI: > 100 µM
CCRF-CEM leukemia
  TGI: > 100 µM
UACC-257 melanoma
  TGI: > 100 µM
DU-145 prostate
  TGI: > 100 µM
HCT-15 colon
  TGI: > 100 µM
OVCAR-8 ovarian
  TGI: > 100 µM
HS 578T breast
  TGI: > 100 µM
SK-MEL-2 melanoma
  TGI: > 100 µM
KM12 colon
  TGI: > 100 µM
M14 melanoma
  TGI: > 100 µM
MCF7 breast
  TGI: > 100 µM
HOP-92 NSCLC
  TGI: > 100 µM
OVCAR-4 ovarian
  TGI: > 100 µM
SF-295 CNS
  TGI: > 100 µM
NCI-H522 lung
  TGI: > 100 µM
BT-549 breast
  TGI: > 100 µM
COLO 205 colon
  TGI: > 100 µM
MDA-MB-435
  TGI: > 100 µM
SW-620 colon
  TGI: > 100 µM
OVCAR-5 ovarian
  TGI: > 100 µM
NCI-H23 lung
  TGI: > 100 µM
U251 CNS
  TGI: > 100 µM
NCI-H460 lung
  TGI: > 100 µM
SK-MEL-5 melanoma
  TGI: > 100 µM
SNB-19 CNS
  TGI: > 100 µM
HL-60(TB) leukemia
  TGI: > 100 µM
TK-10 renal
  TGI: > 100 µM
NCI-H226 lung
  TGI: > 100 µM
PC-3 prostate
  TGI: > 100 µM
OVCAR-3 ovarian
  TGI: > 100 µM
MDA-MB-231 breast
  TGI: > 100 µM
HOP-62 NSCLC
  TGI: > 100 µM
IGROV1 ovarian
  TGI: > 100 µM
SF-268 CNS
  TGI: > 100 µM
CAKI-1 renal
  TGI: > 100 µM
A498 renal
  TGI: > 100 µM
SR leukemia
  TGI: > 100 µM
SN12C renal
  TGI: > 100 µM
T-47D breast
  TGI: > 100 µM
LOX IMVI melanoma
  TGI: > 100 µM
HT29 colon
  TGI: > 100 µM
EKVX NSCLC
  TGI: > 100 µM
UACC-62 melanoma
  TGI: > 100 µM
MALME-3M melanoma
  TGI: > 100 µM

## NCCSS(=O)(=O)CCN
K-562 leukemia
  TGI: > 100 µM
RXF 393 renal
  TGI: > 100 µM
786-0 renal
  TGI: > 100 µM
SF-539 CNS
  TGI: > 100 µM
MDA-N
  TGI: > 100 µM
UO-31 renal
  TGI: > 100 µM
ACHN renal
  TGI: > 100 µM
A549 NSCLC
  TGI: > 100 µM
SK-MEL-28 melanoma
  TGI: > 100 µM
HCC-2998 colon
  TGI: > 100 µM
SNB-75 CNS
  TGI: > 100 µM
HCT-116 colon
  TGI: > 100 µM
MOLT-4 leukemia
  TGI: > 100 µM
NCI/ADR-RES ovarian
  TGI: > 100 µM
CCRF-CEM leukemia
  TGI: > 100 µM
DU-145 prostate
  TGI: > 100 µM
HCT-15 colon
  TGI: > 100 µM
RPMI-8226 leukemia
  TGI: > 100 µM
OVCAR-8 ovarian
  TGI: > 100 µM
HS 578T breast
  TGI: > 100 µM
SK-MEL-2 melanoma
  TGI: > 100 µM
KM12 colon
  TGI: > 100 µM
M14 melanoma
  TGI: > 100 µM
MCF7 breast
  TGI: > 100 µM
HOP-92 NSCLC
  TGI: > 100 µM
OVCAR-4 ovarian
  TGI: > 100 µM
SF-295 CNS
  TGI: > 100 µM
NCI-H522 lung
  TGI: > 100 µM
BT-549 breast
  TGI: > 100 µM
COLO 205 colon
  TGI: > 100 µM
MDA-MB-435
  TGI: > 100 µM
SW-620 colon
  TGI: > 100 µM
OVCAR-5 ovarian
  TGI: > 100 µM
NCI-H23 lung
  TGI: > 100 µM
SK-OV-3 ovarian
  TGI: > 100 µM
U251 CNS
  TGI: > 100 µM
NCI-H460 lung
  TGI: > 100 µM
SK-MEL-5 melanoma
  TGI: > 100 µM
SNB-19 CNS
  TGI: > 100 µM
HL-60(TB) leukemia
  TGI: > 100 µM
TK-10 renal
  TGI: > 100 µM
NCI-H226 lung
  TGI: > 100 µM
PC-3 prostate
  TGI: > 100 µM
OVCAR-3 ovarian
  TGI: > 100 µM
MDA-MB-231 breast
  TGI: > 100 µM
HOP-62 NSCLC
  TGI: > 100 µM
IGROV1 ovarian
  TGI: > 100 µM
SF-268 CNS
  TGI: > 100 µM
CAKI-1 renal
  TGI: > 100 µM
A498 renal
  TGI: > 100 µM
SR leukemia
  TGI: > 100 µM
SN12C renal
  TGI: > 100 µM
T-47D breast
  TGI: > 100 µM
LOX IMVI melanoma
  TGI: > 100 µM
HT29 colon
  TGI: > 100 µM
EKVX NSCLC
  TGI: > 100 µM
UACC-62 melanoma
  TGI: > 100 µM
MALME-3M melanoma
  TGI: > 100 µM
